Assay results published in ChEMBL document CHEMBL2417538, “Antithrombotic effects of LB30870, a potent, orally active, selective and direct thrombin inhibitor, and pharmacokinetics of its prodrug” (Bioorg Med Chem Lett, 2013).
Converted amounts (≈) assume the structure as drawn. The source made the active and inactive calls. The rule behind the calls is not given here.

Assays:
Rattus norvegicus [1] = assay: Anticoagulant activity in Sprague-Dawley rat deep vein thrombosis model assessed as reduction in wet clot weight at 50 ug/kg, iv administered as infusion; assay type: functional
[2] = AUC in Sprague-Dawley rat at 30 mg/kg, po; assay type: ADME, organism-based; design: dose 30 mg/kg, route oral; details: plasma
Rattus norvegicus [3] = assay: Anticoagulant activity in Sprague-Dawley rat deep vein thrombosis model assessed as prothrombin time change at 0.25 mg/kg, iv administered as bolus and 10 ug/kg/min administered as infusion relative to control; assay type: functional
Rattus norvegicus [4] = assay: Anticoagulant activity in Sprague-Dawley rat deep vein thrombosis model assessed as activated partial thromboplastin time change at 0.05 mg/kg, iv administered as bolus and 2 ug/kg/min administered as infusion relative to control; assay type: functional
[5] = Cmax in Sprague-Dawley rat at 30 mg/kg, po; assay type: ADME, organism-based; design: dose 30 mg/kg, route oral; details: in vivo
[6] = Plasma protein binding in rat at 30 ug/ml by ultra-filtration method; assay type: ADME, cell-free; details: read-out: PPB (converted)
Rattus norvegicus [7] = assay: Anticoagulant activity in Sprague-Dawley rat deep vein thrombosis model assessed as reduction in wet clot weight administered as iv bolus followed by infusion relative to control; assay type: functional, organism-based
[8] = Plasma protein binding in human at 1 ug/ml by ultra-filtration method; assay type: ADME, cell-free; details: read-out: PPB (converted)
Plasma [9] = assay: Anticoagulant activity in rat plasma assessed as concentration required to double prothrombin time; assay type: functional
Homo sapiens [10] = species on record: Homo sapiens; assay: Selectivity ratio of Ki for human factor 10a to Ki for human thrombin
Rattus norvegicus [11] = assay: Anticoagulant activity in Sprague-Dawley rat deep vein thrombosis model assessed as activated partial thromboplastin time change at 0.1 mg/kg, iv administered as bolus and 4 ug/kg/min administered as infusion relative to control; assay type: functional
[12] = Oral bioavailability in Sprague-Dawley rat at 30 mg/kg; assay type: ADME, organism-based; details: in vivo
Rattus norvegicus [13] = assay: Anticoagulant activity in Sprague-Dawley rat deep vein thrombosis model assessed as wet clot weight at 0.2 mg/kg, iv administered as bolus and 8 ug/kg/min administered as infusion (reference value: 83 +/- 5.1 mg); assay type: functional
Rattus norvegicus [14] = assay: Anticoagulant activity in Sprague-Dawley rat deep vein thrombosis model assessed as prothrombin time change at 0.1 mg/kg, iv administered as bolus and 4 ug/kg/min administered as infusion relative to control; assay type: functional
Plasma [15] = assay: Anticoagulant activity in monkey plasma assessed as concentration required to double thrombin time; assay type: functional, Macaca mulatta
Rattus norvegicus [16] = assay: Anticoagulant activity in Sprague-Dawley rat deep vein thrombosis model assessed as prothrombin time change at 0.025 mg/kg, iv administered as bolus and 1 ug/kg/min administered as infusion relative to control; assay type: functional
Plasma [17] = assay: Anticoagulant activity in rabbit plasma assessed as concentration required to double thrombin time; assay type: functional, Oryctolagus cuniculus
[18] = Distribution coefficient, log D of the compound at pH 7 by potentiometric titration; assay type: physicochemical; details: octanol/water
[19] = Aqueous solubility of the compound at pH 6.62; assay type: physicochemical; details: aqueous solution
[20] = Plasma protein binding in rat at 5 ug/ml by ultra-filtration method; assay type: ADME, cell-free; details: read-out: PPB (converted)
Homo sapiens [21] = species on record: Homo sapiens; assay: Selectivity ratio of Ki for human t-PA to Ki for human thrombin
Prothrombin [22] = molecular target: T1, Prothrombin (Homo sapiens, UniProt P00734); assay: Inhibition of human thrombin
Plasma [23] = assay: Anticoagulant activity in human plasma assessed as concentration required to double prothrombin time; assay type: functional
Coagulation factor X = Coagulation factor X (Homo sapiens, UniProt P00742); assay: Inhibition of human factor 10a
Chain of Coagulation factor X (P00742 41-179 limits assumed): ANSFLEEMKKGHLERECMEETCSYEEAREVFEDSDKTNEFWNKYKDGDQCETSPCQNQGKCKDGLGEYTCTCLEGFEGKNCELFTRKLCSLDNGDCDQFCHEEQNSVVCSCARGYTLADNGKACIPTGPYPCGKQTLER
Chain of Coagulation factor X (P00742 235-488 limits assumed): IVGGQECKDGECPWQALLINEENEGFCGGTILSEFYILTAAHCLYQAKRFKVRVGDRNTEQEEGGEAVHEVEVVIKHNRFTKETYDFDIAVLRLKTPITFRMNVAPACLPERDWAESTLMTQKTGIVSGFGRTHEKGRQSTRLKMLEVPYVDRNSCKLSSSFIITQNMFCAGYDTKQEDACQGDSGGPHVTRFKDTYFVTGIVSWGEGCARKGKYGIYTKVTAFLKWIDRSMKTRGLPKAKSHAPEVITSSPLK

Prothrombin [24] = molecular target: T1, Prothrombin; assay: Inhibition of thrombin (unknown origin) assessed as fibrin clot formation
[25] = Plasma protein binding in dog at 30 ug/ml by ultra-filtration method; assay type: ADME, cell-free, Canis lupus familiaris; details: read-out: PPB (converted)
[26] = Plasma protein binding in human at 5 ug/ml by ultra-filtration method; assay type: ADME, cell-free; details: read-out: PPB (converted)
Rattus norvegicus [27] = assay: Anticoagulant activity in Sprague-Dawley rat deep vein thrombosis model assessed as activated partial thromboplastin time change at 0.025 mg/kg, iv administered as bolus and 1 ug/kg/min administered as infusion relative to control; assay type: functional
[28] = Oral bioavailability in monkey; assay type: ADME, organism-based, Macaca mulatta; details: rhesus monkey, in vivo
Rattus norvegicus [29] = assay: Anticoagulant activity in Sprague-Dawley rat deep vein thrombosis model assessed as activated partial thromboplastin time change at 0.2 mg/kg, iv administered as bolus and 8 ug/kg/min administered as infusion relative to control; assay type: functional
Plasma [30] = assay: Anticoagulant activity in rat plasma assessed as concentration required to double activated partial thromboplastin time; assay type: functional
Rattus norvegicus [31] = assay: Anticoagulant activity in Sprague-Dawley rat deep vein thrombosis model assessed as wet clot weight at 0.1 mg/kg, iv administered as bolus and 4 ug/kg/min administered as infusion (reference value: 83 +/- 5.1 mg); assay type: functional
Rattus norvegicus [32] = assay: Anticoagulant activity in Sprague-Dawley rat deep vein thrombosis model assessed as activated partial thromboplastin time change at 0.25 mg/kg, iv administered as bolus and 10 ug/kg/min administered as infusion relative to control; assay type: functional
[33] = Dissociation constant, pKa of the compound by potentiometric titration; assay type: physicochemical
[34] = Plasma protein binding in rat at 1 ug/ml by ultra-filtration method; assay type: ADME, cell-free; details: read-out: PPB (converted)
Plasma [35] = assay: Anticoagulant activity in monkey plasma assessed as concentration required to double prothrombin time; assay type: functional, Macaca mulatta
[36] = Plasma protein binding in human at 30 ug/ml by ultra-filtration method; assay type: ADME, cell-free; details: read-out: PPB (converted)
Plasma [37] = assay: Anticoagulant activity in rabbit plasma assessed as concentration required to double activated partial thromboplastin time; assay type: functional, Oryctolagus cuniculus
Prothrombin [38] = molecular target: T1, Prothrombin; assay: Inhibition of plasma clot-bound thrombin (unknown origin) using S2238 as substrate
Rattus norvegicus [39] = assay: Anticoagulant activity in Sprague-Dawley rat deep vein thrombosis model assessed as wet clot weight at 0.05 mg/kg, iv administered as bolus and 2 ug/kg/min administered as infusion (reference value: 83 +/- 5.1 mg); assay type: functional
Trypsin = Trypsin (Homo sapiens, UniProt P07477+P07478+P35030); assay: Inhibition of human trypsin; assay type: protein assay
[40] = Plasma protein binding in dog at 1 ug/ml by ultra-filtration method; assay type: ADME, cell-free, Canis lupus familiaris; details: read-out: PPB (converted)
Rattus norvegicus [41] = assay: Anticoagulant activity in Sprague-Dawley rat deep vein thrombosis model assessed as prothrombin time change at 0.2 mg/kg, iv administered as bolus and 8 ug/kg/min administered as infusion relative to control; assay type: functional
[42] = Aqueous solubility of the compound at pH 4.7; assay type: physicochemical; details: aqueous solution
Homo sapiens [43] = species on record: Homo sapiens; assay: Selectivity ratio of Ki for human plasmin to Ki for human thrombin
[44] = Plasma protein binding in dog at 5 ug/ml by ultra-filtration method; assay type: ADME, cell-free, Canis lupus familiaris; details: read-out: PPB (converted)
[45] = AUC in Beagle dog at 10 mg/kg, po; assay type: ADME, organism-based, Canis lupus familiaris; design: dose 10 mg/kg, route oral; details: plasma
Prothrombin [46] = molecular target: T1, Prothrombin; assay: Binding affinity to thrombin (unknown origin) by surface plasmon resonance analysis
[47] = Aqueous solubility of the compound at pH 7.35; assay type: physicochemical; details: aqueous solution
Rattus norvegicus [48] = assay: Anticoagulant activity in Sprague-Dawley rat deep vein thrombosis model assessed as prothrombin time change at 0.05 mg/kg, iv administered as bolus and 2 ug/kg/min administered as infusion relative to control; assay type: functional
[49] = Oral bioavailability in Beagle dog at 10 mg/kg; assay type: ADME, organism-based, Canis lupus familiaris; details: in vivo
Plasminogen = Plasminogen (Homo sapiens, UniProt P00747); assay: Inhibition of human plasmin
Chain of Plasminogen (P00747 97-580 limits assumed): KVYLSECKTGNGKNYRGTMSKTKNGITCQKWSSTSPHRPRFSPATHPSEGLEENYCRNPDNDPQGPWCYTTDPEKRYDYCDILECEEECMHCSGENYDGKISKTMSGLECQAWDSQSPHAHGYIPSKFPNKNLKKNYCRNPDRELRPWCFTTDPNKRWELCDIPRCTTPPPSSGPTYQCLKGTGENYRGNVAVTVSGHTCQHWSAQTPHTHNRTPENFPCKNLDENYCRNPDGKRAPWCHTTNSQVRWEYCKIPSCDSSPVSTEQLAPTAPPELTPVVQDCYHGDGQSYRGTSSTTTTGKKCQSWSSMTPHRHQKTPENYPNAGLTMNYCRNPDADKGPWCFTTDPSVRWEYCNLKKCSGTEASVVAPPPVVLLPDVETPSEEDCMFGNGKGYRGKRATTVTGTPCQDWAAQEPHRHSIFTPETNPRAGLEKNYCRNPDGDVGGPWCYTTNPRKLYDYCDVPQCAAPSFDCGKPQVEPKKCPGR
Chain of Plasminogen (P00747 581-810 limits assumed): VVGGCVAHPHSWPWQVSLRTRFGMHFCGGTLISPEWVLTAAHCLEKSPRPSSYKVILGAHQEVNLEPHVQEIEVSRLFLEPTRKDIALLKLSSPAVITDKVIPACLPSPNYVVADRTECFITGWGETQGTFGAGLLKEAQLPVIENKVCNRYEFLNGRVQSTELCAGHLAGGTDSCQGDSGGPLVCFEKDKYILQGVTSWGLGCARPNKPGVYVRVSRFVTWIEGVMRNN

Plasma [50] = assay: Anticoagulant activity in rat plasma assessed as concentration required to double thrombin time; assay type: functional
[51] = molecular target: Tissue-type plasminogen activator (Homo sapiens, UniProt P00750); assay: Inhibition of human t-PA
Chain of Tissue-type plasminogen activator (P00750 whole entry): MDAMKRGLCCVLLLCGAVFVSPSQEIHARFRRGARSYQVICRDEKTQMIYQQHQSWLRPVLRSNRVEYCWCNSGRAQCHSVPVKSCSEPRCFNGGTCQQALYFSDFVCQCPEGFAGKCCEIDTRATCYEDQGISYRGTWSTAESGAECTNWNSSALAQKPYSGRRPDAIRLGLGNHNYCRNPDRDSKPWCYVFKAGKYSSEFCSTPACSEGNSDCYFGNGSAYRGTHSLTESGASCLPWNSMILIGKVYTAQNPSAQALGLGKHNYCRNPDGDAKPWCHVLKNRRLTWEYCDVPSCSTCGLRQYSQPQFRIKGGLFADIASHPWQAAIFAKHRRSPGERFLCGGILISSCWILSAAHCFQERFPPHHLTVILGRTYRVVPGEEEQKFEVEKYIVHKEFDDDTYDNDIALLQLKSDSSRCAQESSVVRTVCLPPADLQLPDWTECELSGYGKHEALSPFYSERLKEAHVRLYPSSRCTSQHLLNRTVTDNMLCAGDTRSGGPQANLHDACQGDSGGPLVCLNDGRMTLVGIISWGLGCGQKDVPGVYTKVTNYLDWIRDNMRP

Homo sapiens [52] = species on record: Homo sapiens; assay: Selectivity ratio of Ki for human trypsin to Ki for human thrombin
Prothrombin [53] = molecular target: T1, Prothrombin; assay: Inhibition of free thrombin (unknown origin) using S2238 as substrate
Plasma [54] = assay: Anticoagulant activity in human plasma assessed as concentration required to double activated partial thromboplastin time; assay type: functional
Plasma [55] = assay: Anticoagulant activity in human plasma assessed as concentration required to double thrombin time; assay type: functional
Prothrombin [56] = molecular target: T1, Prothrombin; assay: Competitive inhibition of human thrombin at 0.25 to 1 nM by Lineweaver-Burk plot analysis
[57] = Cmax in Beagle dog at 10 mg/kg, po; assay type: ADME, organism-based, Canis lupus familiaris; design: dose 10 mg/kg, route oral; details: in vivo
Plasma [58] = assay: Anticoagulant activity in rabbit plasma assessed as concentration required to double prothrombin time; assay type: functional, Oryctolagus cuniculus
Plasma [59] = assay: Anticoagulant activity in monkey plasma assessed as concentration required to double activated partial thromboplastin time; assay type: functional, Macaca mulatta

With `N=C(N)c1ccc(CNC(=O)[C@@H]2CCCN2C(=O)[C@@H](NCC(=O)O)C(c2ccccc2)c2ccccc2)s1` the ED50 (Rattus norvegicus [1]) was 2 µg/kg/min, the AUC [2] was 9.27 µg·h/mL and the “fold change (FC)” value (Rattus norvegicus [3]) was 17.2. The “fold change (FC)” value (Rattus norvegicus [4]) was 2.77, the Cmax [5] was 2.9 µg/mL and the fraction unbound at 30 ug/ml [6] was 0.182. The Activity (Rattus norvegicus [7]) was “Dose-dependent effect”, the fraction unbound at 1 ug/ml [8] was 0.485 and the 2PT (Plasma [9]) was 1.12 µM. For the same compound, the Activity (Plasma [9]) was “Dose-dependent effect”, the Ratio Ki (Homo sapiens [10]) was greater than 10000 and the “fold change (FC)” value (Rattus norvegicus [11]) was 3.58. For the same compound, the bioavailability [12] was 30%, the Activity (Rattus norvegicus [13]) was 0 mg and the “fold change (FC)” value (Rattus norvegicus [14]) was 2.07. For the same compound, the 2TT (Plasma [15]) was greater than 0.2 µM, the Activity (Plasma [15]; Macaca mulatta) was “Dose-dependent effect” and the “fold change (FC)” value (Rattus norvegicus [16]) was 1.03. The 2TT (Plasma [17]) was 0.019 µM, the Activity (Plasma [17]; Oryctolagus cuniculus) was “Dose-dependent effect” and the logD [18] was -0.088. For the same compound, the solubility [19] was 0.57 mg/mL (≈ 1070 µM), the fraction unbound at 5 ug/ml [20] was 0.147 and the Ratio Ki (Homo sapiens [21]) was 5210. The Ki (Prothrombin [22]) was 0.02 nM, the 2PT (Plasma [23]) was 0.66 µM and the Activity (Plasma [23]) was “Dose-dependent effect”. It also gave a Ki (Coagulation factor X) of 2250 nM, an IC50 (Prothrombin [24]) of 16 nM and a fraction unbound at 30 ug/ml [25] of 0.216. The fraction unbound at 5 ug/ml [26] was 0.482, the “fold change (FC)” value (Rattus norvegicus [27]) was 1.68 and the bioavailability [28] was 15%. For the same compound, the “fold change (FC)” value (Rattus norvegicus [29]) was 5.58, the 2aPTT (Plasma [30]) was 0.97 µM and the Activity (Plasma [30]) was “Dose-dependent effect”. For the same compound, the Activity (Rattus norvegicus [31]) was 23 mg, the “fold change (FC)” value (Rattus norvegicus [32]) was 4.37 and the pKa [33] was 1.91. For the same compound, the fraction unbound at 1 ug/ml [34] was 0.124, the 2PT (Plasma [35]) was 0.3 µM and the Activity (Plasma [35]; Macaca mulatta) was “Dose-dependent effect”. For the same compound, the fraction unbound at 30 ug/ml [36] was 0.508, the 2aPTT (Plasma [37]) was 1.1 µM and the Activity (Plasma [37]; Oryctolagus cuniculus) was “Dose-dependent effect”. The IC50 (Prothrombin [38]) was 5 nM, the Activity (Rattus norvegicus [39]) was 46 mg and the Ki (Trypsin) was 0.3 nM. The fraction unbound at 1 ug/ml [40] was 0.174, the “fold change (FC)” value (Rattus norvegicus [41]) was 9.04 and the solubility [42] was 15 mg/mL (≈ 28200 µM). The Ratio Ki (Homo sapiens [43]) was greater than 10000, the fraction unbound at 5 ug/ml [44] was 0.177 and the AUC [45] was 12.2 µg·h/mL. The Kd (Prothrombin [46]) was 0.18 nM, the solubility [47] was 0.46 mg/mL (≈ 862 µM) and the “fold change (FC)” value (Rattus norvegicus [48]) was 1.15. The bioavailability [49] was 43%, the Ki (Plasminogen) was 7430 nM and the 2TT (Plasma [50]) was 0.01 µM. The Activity (Plasma [50]) was “Dose-dependent effect”, the Ki [51] was 113 nM and the Ratio Ki (Homo sapiens [52]) was 13.7. For the same compound, the IC50 (Prothrombin [53]) was 2.1 nM, the 2aPTT (Plasma [54]) was 0.23 µM and the Activity (Plasma [54]) was “Dose-dependent effect”. The 2TT (Plasma [55]) was 0.016 µM, the Activity (Plasma [55]) was “Dose-dependent effect” and the inhibition (Prothrombin [56]) was “Active”. The Cmax [57] was 6.9 µg/mL, the 2PT (Plasma [58]) was 2.04 µM and the Activity (Plasma [58]; Oryctolagus cuniculus) was “Dose-dependent effect”. The 2aPTT (Plasma [59]) was 0.51 µM and the Activity (Plasma [59]; Macaca mulatta) was “Dose-dependent effect”.
